Measured values reported in PMC2613953, “Characterisation of ATP analogues to cross-link and label P2X receptors” (Neuropharmacology, 2009).

Columns and labels:
Type in all cases: cell-based
P2X3 receptor [1] = molecular target: T1, P2X3 receptor (Rattus norvegicus, UniProt P49654); assay: UV photo-cross-linking, then whole cell patch clamp ([…] reduction of ATP current)
T1 construct: gene P2rx3; rat P2X3 transiently expressed in HEK293 cells
T1 sequence (P49654 1-397): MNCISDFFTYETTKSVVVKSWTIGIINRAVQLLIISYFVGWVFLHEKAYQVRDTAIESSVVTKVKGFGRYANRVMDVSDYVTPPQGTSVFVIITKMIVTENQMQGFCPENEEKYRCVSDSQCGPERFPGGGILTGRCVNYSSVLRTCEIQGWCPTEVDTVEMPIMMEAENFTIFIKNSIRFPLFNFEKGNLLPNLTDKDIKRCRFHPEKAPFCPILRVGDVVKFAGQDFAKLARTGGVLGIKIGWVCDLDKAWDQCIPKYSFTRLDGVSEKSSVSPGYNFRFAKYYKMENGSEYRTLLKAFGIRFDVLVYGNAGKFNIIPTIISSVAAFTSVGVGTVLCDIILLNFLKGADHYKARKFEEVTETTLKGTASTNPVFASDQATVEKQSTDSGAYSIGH

P2X2 receptor [2] = molecular target: T2, P2X2 receptor (Rattus norvegicus, UniProt P49653); assay: as above
T2 construct: gene P2rx2; rat P2X2 transiently expressed in HEK293 cells
T2 sequence (P49653 1-472): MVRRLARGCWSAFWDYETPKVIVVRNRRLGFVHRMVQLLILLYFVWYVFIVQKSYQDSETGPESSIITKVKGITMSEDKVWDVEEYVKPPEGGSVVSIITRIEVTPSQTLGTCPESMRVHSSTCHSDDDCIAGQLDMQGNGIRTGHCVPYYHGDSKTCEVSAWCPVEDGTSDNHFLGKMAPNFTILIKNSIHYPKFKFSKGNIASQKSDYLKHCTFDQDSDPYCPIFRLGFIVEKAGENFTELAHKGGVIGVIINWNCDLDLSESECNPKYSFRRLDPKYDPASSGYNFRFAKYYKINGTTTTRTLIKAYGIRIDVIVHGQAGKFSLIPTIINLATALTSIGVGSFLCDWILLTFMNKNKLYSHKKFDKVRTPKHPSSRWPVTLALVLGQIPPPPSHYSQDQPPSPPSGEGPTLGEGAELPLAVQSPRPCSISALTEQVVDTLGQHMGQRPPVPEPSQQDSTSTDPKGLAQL

P2X4 receptor = molecular target: T3, P2X4 receptor (Homo sapiens, UniProt Q99571); assay: as above
T3 construct: gene P2RX4; human P2X4 receptor stably expressed in HEK293 cells
T3 sequence (Q99571 1-388): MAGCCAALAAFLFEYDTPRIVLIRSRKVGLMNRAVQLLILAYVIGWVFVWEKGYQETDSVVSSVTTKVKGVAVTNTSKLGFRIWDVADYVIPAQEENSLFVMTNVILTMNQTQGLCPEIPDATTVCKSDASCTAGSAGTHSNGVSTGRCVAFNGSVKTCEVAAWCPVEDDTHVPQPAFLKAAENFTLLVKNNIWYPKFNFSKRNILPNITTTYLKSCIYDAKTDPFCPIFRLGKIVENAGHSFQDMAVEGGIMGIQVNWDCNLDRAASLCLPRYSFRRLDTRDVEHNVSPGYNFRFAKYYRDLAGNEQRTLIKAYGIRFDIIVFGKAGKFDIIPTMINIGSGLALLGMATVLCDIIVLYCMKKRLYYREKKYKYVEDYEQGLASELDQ

P2X1 receptor [3] = molecular target: T4, P2X1 receptor (Homo sapiens, UniProt P51575); assay: UV photo-cross-linking of radiolabelled analogue, immunoprecipitation and autoradiography with ATP competition; patch clamp agonism
T4 construct: gene P2RX1; human P2X1 receptor stably expressed in HEK293 cells
T4 sequence (P51575 1-399): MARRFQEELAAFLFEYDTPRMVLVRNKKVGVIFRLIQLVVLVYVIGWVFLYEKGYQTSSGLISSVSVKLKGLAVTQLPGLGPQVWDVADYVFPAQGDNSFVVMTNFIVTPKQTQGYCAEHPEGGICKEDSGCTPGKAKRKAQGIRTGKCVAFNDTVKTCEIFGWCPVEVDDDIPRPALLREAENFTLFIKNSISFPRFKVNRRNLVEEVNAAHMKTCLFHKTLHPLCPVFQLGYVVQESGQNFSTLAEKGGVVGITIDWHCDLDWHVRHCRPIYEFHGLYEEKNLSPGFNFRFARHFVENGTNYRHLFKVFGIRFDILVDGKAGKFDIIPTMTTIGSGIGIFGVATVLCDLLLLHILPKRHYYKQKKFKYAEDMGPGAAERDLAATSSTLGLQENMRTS
Text: UV photo-cross-linking of radiolabelled analogue, immunoprecipitation and autoradiography with ATP competition; patch clamp agonism on P2X1 receptor | It confirms the identification of 2-azido ATP as a cross-linking compound which directly binds to the P2X1 receptor.

P2X3 receptor [4] = molecular target: T1, P2X3 receptor; assay: whole cell patch clamp, agonist current at approximate EC50 concentration
P2X1 receptor [5] = molecular target: T4, P2X1 receptor; assay: competition with radiolabelled photo-reactive ATP analogues; whole cell patch clamp agonism
P2X2 receptor [6] = molecular target: T2, P2X2 receptor; assay: whole cell patch clamp, agonist current at approximate EC50 concentration
P2X1 receptor [7] = molecular target: T4, P2X1 receptor; assay: whole cell patch clamp; partial agonist; UV cross-linking with ATP/suramin protection

**Q.** With `[N-]=[N+]=Nc1nc(N)c2ncn([C@@H]3O[C@H](COP(=O)(O)OP(=O)(O)OP(=O)(O)O)[C@@H](O)[C@H]3O)c2n1` [A, 2-azido ATP] as the molecule, how does the “% reduction” value (P2X3 receptor [1]) read?
**A.** Its value is 83 % reduction.

**Q.** What about the “% reduction” value (P2X2 receptor [2]) of the same molecule?
**A.** Its value is 80 % reduction.

**Q.** And the “% reduction” value (P2X4 receptor)?
**A.** Its value is 45 % reduction.

**Q.** What about the EC50 (P2X1 receptor [3]) of the same molecule?
**A.** The EC50 was ~3 µM.

**Q.** For `Nc1ncnc2c1ncn2[C@@H]1O[C@H](COP(=O)(O)OP(=O)(O)OP(=O)(O)O)[C@@H](O)[C@H]1O` [ATP], which EC50 (P2X3 receptor [4]) is on record?
**A.** Its EC50 is ~ 1 μM.

**Q.** What about the EC50 (P2X1 receptor [5]) of the same molecule?
**A.** The EC50 was ~1000 nM.

**Q.** What about the EC50 (P2X2 receptor [6]) of the same molecule?
**A.** The EC50 was ~ 10 μM.

**Q.** With `Nc1ncnc2c1ncn2[C@@H]1O[C@H](COP(=O)(O)OP(=O)(O)OP(=O)(O)O)[C@@H](OC(=O)c2ccc(C(=O)c3ccccc3)cc2)[C@H]1O` [C, 2′,3′-O-(4-benzoylbenzoyl)-ATP] as the molecule, how does the “whole cell patch clamp; partial agonist; UV cross-linking with ATP/suramin prote” value (P2X1 receptor [7]) read?
**A.** The value was “These results suggest that the BzATP is acting to cross-link to the P2X1 receptor at the ATP binding site”.
